Measured values published in patent US10051860B2, “Plant disease controlling composition and method for controlling plant disease” (SUMITOMO CHEMICAL COMPANY, LIMITED, priority 2010, dated 2018).

System: gray mold fungus (Botrytis cinerea)
Test: Cucumber leaf disk preventive test against gray mold fungus (Test Examples 1 and 2, Reference Examples)
Format: in vivo
Conditions: 15° C., four days
Procedure: To a SUS beaker are added 30 parts of the present compound (racemate), 5 parts of Soprophor FLK (polyoxyethylene tristyrylphenyl ether phosphate, produced by Rhodia Nicca Ltd.), 65 parts of ion-exchange water and 150 parts of glass beads (1.0 mm diameter). The mixture is subjected to grinding at a velocity of 1000 rpm with cooling to 10° C., and thereafter the glass beads are separated, so as to obtain a flowable formulation comprising the present compound (racemate).
True leaf of cucumber is punched out with cork borer to 13 mm in diameter to prepare a leaf disk. In 24 well microwell plate that is dispensed with 1 ml 0.8% water agar, the leaf disk is placed such that the upper side of the leaf is in an upward direction. Thereto is added 20 micro liter a testing solution prepared by mixing the flowable formulation of the present compound (racemate) prepared by the above procedure and a commercial liquid formulation of validamycin or a commercial wettable powders of polyoxins to a predetermined concentration to treat the leaf disk.
After confirming that the testing medical solution is dried, conidium of gray mold fungus (Botrytis cinerea) is suspended into potato dextrose broth (DIFCO) in a density of about 10^5 conidium/mL and is then subjected to a spray inoculation. After leaving to stand the leaf disk in a growth chamber set up at 15° C. for four days, an onset area on the leaf is measured and then calculated an onset area rate (hereinafter, referred to as an onset area rate of treated group).
The same operation is carried out with 20 micro liter water instead of 20 micro liter a testing medicine solution to calculate an onset area rate (hereinafter, referred to an onset area rate of non-treated group).
A preventive value is calculated from the above onset area rate of treated group and the onset area rate of non-treated group by the following equation: Preventive value (%)=100×(A−B)/A
A: an onset area rate of treated group
B: an onset area rate of non-treated group
The same operations as described in Test Example 1 are carried out with kasugamycin or streptomycin instead of validamycin or polyoxins, so as to calculate respective preventive values.
Also for comparison, the same operations as described in Test Example 1 are carried out with the exception that the testing medicine solution is substituted with a predetermined concentration of either a flowable formulation of the present amide compound or a commercial wettable powder of kasugamycin or streptomycin, so as to calculate respective preventive values.
For comparison, the same operations as described in Test Example 1 are carried out with the exception that the testing medicine solution is substituted with a predetermined concentration of a solution of a wettable powder of validamycin or polyoxins, so as to calculate a preventive value.

[1] = antibiotic compound alone 0.5 ppm
[2] = antibiotic compound alone 5.0 ppm

## C[C@H]1O[C@H](O[C@H]2[C@H](O)[C@@H](O)[C@@H](O)[C@H](O)[C@@H]2O)[C@@H](N)C[C@@H]1NC(=N)C(=O)O [kasugamycin]
[1]
  preventive value (%): 0%
[2]
  preventive value (%): 10%

## [H]/N=C(/N)N[C@H]1[C@H](O)[C@@H](O)[C@H](O[C@@H]2O[C@@H](C)[C@](O)(C=O)[C@H]2O[C@@H]2O[C@@H](CO)[C@H](O)[C@@H](O)[C@@H]2NC)[C@@H](N/C(N)=N\[H])[C@@H]1O [streptomycin]
[1]
  preventive value (%): 0%
[2]
  preventive value (%): 10%

## polyoxins
[1]
  preventive value (%): 11%
[2]
  preventive value (%): 15%

## OCC1=C[C@H](N[C@H]2C[C@H](CO)[C@@H](O[C@@H]3O[C@H](CO)[C@@H](O)[C@H](O)[C@H]3O)[C@H](O)[C@H]2O)[C@H](O)[C@@H](O)[C@@H]1O [validamycin]
[1]
  preventive value (%): 5%
[2]
  preventive value (%): 10%
